{"source": "the supplement of paper PMC11208160"}
{"assay": "recombinant barcode read abundance after kanamycin selection (control-corrected) (log10(CPM+1)); higher = more efficient recombination; sequences stand for … in AGTGCAGAGAAAATCGGCCAGTTTTCTCTGCCTGCAGTCCGCATGCCGT…AGATTTATGCAGCGGACTGCCTTTCTCCCAAAGTGATAAACCGGACAGTATCATGGACCGGTTTTCCCGGTAATCCGTATTTGCAAGGTTGGTTTCACT; site = the 11-nt target", "method_in_brief": "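Targets and IS621 bridge RNA target-binding loops were paired in oligos, each with a promoter, a barcode and the J23119-driven first 104 bridge RNA bases. A vector carrying the remaining 73 bp and a T7-inducible recombinase received these by Gibson cloning, and the pool was co-electroporated into E. coli with a donor plasmid. Duplicate plates contained chloramphenicol/ampicillin LB agar (control) or chloramphenicol/ampicillin/kanamycin with 0.1 mM IPTG. Recombination efficiency comes from averaged, control-corrected counts per million of recombinant-junction barcodes, reported as log10(CPM+1).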"}
{"sequence": "CTATTCTCTTGGGTTCTAACCTGTTGCTA (site CTATTCTCTTA)", "recombinant barcode read abundance (log10)": 1.62}
{"sequence": "CTATTGTCTTGGGTTCTAACCTGTTGCGT (site CTATTGTCTAC)", "recombinant barcode read abundance (log10)": 2.78}
{"sequence": "CTATTGTCTTGGGTTCTAACCTGTTGCGT (site CTATTGTCTCC)", "recombinant barcode read abundance (log10)": 0.019}
{"sequence": "CTATTGTCTTGGGTTCTAACCTGTTGCGT (site CTATTGTCTGC)", "recombinant barcode read abundance (log10)": 0.475}
{"sequence": "CTATTGTCTTGGGTTCTAACCTGTTGCGT (site CTATTGTCTTC)", "recombinant barcode read abundance (log10)": 0.0685}
{"sequence": "CTATTTACTTGGGTTCTAACCTGTTGCGG (site CTATTTACTCC)", "recombinant barcode read abundance (log10)": 0.781}
{"sequence": "CTATTTACTTGGGTTCTAACCTGTTGCGG (site TGTCGGCCTAA)", "recombinant barcode read abundance (log10)": 0.0533}
{"sequence": "CTATTTCCTTGGGTTCTAACCTGTTGCCT (site CGGTTTCCTAG)", "recombinant barcode read abundance (log10)": 0.032}
{"sequence": "CTATTTCCTTGGGTTCTAACCTGTTGCCT (site CTATTTCCTAG)", "recombinant barcode read abundance (log10)": 0.284}
{"sequence": "CTCAAACCTTGGGTTCTAACCTGTTGCTT (site CTCAAACCTAA)", "recombinant barcode read abundance (log10)": 0.355}
{"sequence": "CTCAAACCTTGGGTTCTAACCTGTTGCTT (site CTCACACCTAA)", "recombinant barcode read abundance (log10)": 0.15}
{"sequence": "CTCAAGACTTGGGTTCTAACCTGTTGCGG (site CTCAAGACTCC)", "recombinant barcode read abundance (log10)": 2.5}
{"sequence": "CTCAAGACTTGGGTTCTAACCTGTTGCGG (site CTCTAGACTCA)", "recombinant barcode read abundance (log10)": 0.219}
{"sequence": "CTCACACCTTGGGTTCTAACCTGTTGCAG (site CTCACACCTCT)", "recombinant barcode read abundance (log10)": 0.968}
{"sequence": "CTCACACCTTGGGTTCTAACCTGTTGCAG (site TGTCATGCTAC)", "recombinant barcode read abundance (log10)": 0.331}
{"sequence": "CTCACGCCTTGGGTTCTAACCTGTTGCTT (site CACACGCCTAG)", "recombinant barcode read abundance (log10)": 0.228}
{"sequence": "CTCACGCCTTGGGTTCTAACCTGTTGCTT (site CTCACGCCTAA)", "recombinant barcode read abundance (log10)": 0.237}
{"sequence": "CTCAGGTCTTGGGTTCTAACCTGTTGCCA (site CTCAGGTCTAG)", "recombinant barcode read abundance (log10)": 0.18}
{"sequence": "CTCAGGTCTTGGGTTCTAACCTGTTGCCA (site CTCAGGTCTTG)", "recombinant barcode read abundance (log10)": 0.193}
{"sequence": "CTCATTCCTTGGGTTCTAACCTGTTGCAT (site CTCATTCCTAA)", "recombinant barcode read abundance (log10)": 0.0718}
{"sequence": "CTCATTCCTTGGGTTCTAACCTGTTGCAT (site CTCATTCCTAC)", "recombinant barcode read abundance (log10)": 0.0351}
{"sequence": "CTCATTCCTTGGGTTCTAACCTGTTGCAT (site CTCATTCCTAG)", "recombinant barcode read abundance (log10)": 0.112}
{"sequence": "CTCATTCCTTGGGTTCTAACCTGTTGCAT (site CTCATTCCTAT)", "recombinant barcode read abundance (log10)": 0.523}
{"sequence": "CTCATTCCTTGGGTTCTAACCTGTTGCTT (site CTCATTCCTAA)", "recombinant barcode read abundance (log10)": 0.211}
{"sequence": "CTCATTCCTTGGGTTCTAACCTGTTGCTT (site CTCATTCCTAC)", "recombinant barcode read abundance (log10)": 0.482}
{"sequence": "CTCATTCCTTGGGTTCTAACCTGTTGCTT (site CTCATTCCTAG)", "recombinant barcode read abundance (log10)": 0.0511}
{"sequence": "CTCATTCCTTGGGTTCTAACCTGTTGCTT (site CTCATTCCTAT)", "recombinant barcode read abundance (log10)": 0.0615}
{"sequence": "CTCCATCCTTGGGTTCTAACCTGTTGCCT (site CTCCATACTAG)", "recombinant barcode read abundance (log10)": 0}
{"sequence": "CTCCATCCTTGGGTTCTAACCTGTTGCCT (site CTCCATCCTAG)", "recombinant barcode read abundance (log10)": 0.898}
{"sequence": "CTCCATCCTTGGGTTCTAACCTGTTGCCT (site CTCCATGCTAG)", "recombinant barcode read abundance (log10)": 0.0326}
{"sequence": "CTCCATCCTTGGGTTCTAACCTGTTGCCT (site CTCCATTCTAG)", "recombinant barcode read abundance (log10)": 0.0176}
{"sequence": "CTCCATGCTTGGGTTCTAACCTGTTGCCT (site CTCCATACTAG)", "recombinant barcode read abundance (log10)": 0.325}
{"sequence": "CTCCATGCTTGGGTTCTAACCTGTTGCCT (site CTCCATCCTAG)", "recombinant barcode read abundance (log10)": 0.312}
{"sequence": "CTCCATGCTTGGGTTCTAACCTGTTGCCT (site CTCCATGCTAG)", "recombinant barcode read abundance (log10)": 1.19}
{"sequence": "CTCCATGCTTGGGTTCTAACCTGTTGCCT (site CTCCATTCTAG)", "recombinant barcode read abundance (log10)": 0.0894}
{"sequence": "CTCCATTCTTGGGTTCTAACCTGTTGCCT (site CTCCATACTAG)", "recombinant barcode read abundance (log10)": 0.0751}
{"sequence": "CTCCATTCTTGGGTTCTAACCTGTTGCCT (site CTCCATCCTAG)", "recombinant barcode read abundance (log10)": 0.314}
{"sequence": "CTCCATTCTTGGGTTCTAACCTGTTGCCT (site CTCCATGCTAG)", "recombinant barcode read abundance (log10)": 0.129}
{"sequence": "CTCCATTCTTGGGTTCTAACCTGTTGCCT (site CTCCATTCTAG)", "recombinant barcode read abundance (log10)": 0.739}
{"sequence": "CTCCCGACTTGGGTTCTAACCTGTTGCGC (site AGAGTAGCTTA)", "recombinant barcode read abundance (log10)": 0.119}
{"sequence": "CTCCCGACTTGGGTTCTAACCTGTTGCGC (site CTCCCGACTGC)", "recombinant barcode read abundance (log10)": 2.08}
{"sequence": "CTCCCTGCTTGGGTTCTAACCTGTTGCCT (site CTCCCTGCTAG)", "recombinant barcode read abundance (log10)": 1.1}
{"sequence": "CTCCCTGCTTGGGTTCTAACCTGTTGCCT (site GAGGTCCCTCC)", "recombinant barcode read abundance (log10)": 0.0158}
{"sequence": "CTCCGCCCTTGGGTTCTAACCTGTTGCTT (site CTCCGACCTAA)", "recombinant barcode read abundance (log10)": 0.121}
{"sequence": "CTCCGCCCTTGGGTTCTAACCTGTTGCTT (site CTCCGCCCTAA)", "recombinant barcode read abundance (log10)": 0.578}
{"sequence": "CTCCGCCCTTGGGTTCTAACCTGTTGCTT (site CTCCGGCCTAA)", "recombinant barcode read abundance (log10)": 0.106}
{"sequence": "CTCCGCCCTTGGGTTCTAACCTGTTGCTT (site CTCCGTCCTAA)", "recombinant barcode read abundance (log10)": 0.0629}
{"sequence": "CTCCGCTCTTGGGTTCTAACCTGTTGCCT (site ATCCGCTCTAG)", "recombinant barcode read abundance (log10)": 0.211}
{"sequence": "CTCCGCTCTTGGGTTCTAACCTGTTGCCT (site CTCCGCTCTAG)", "recombinant barcode read abundance (log10)": 2.28}
{"sequence": "CTCCGCTCTTGGGTTCTAACCTGTTGCCT (site GTCCGCTCTAG)", "recombinant barcode read abundance (log10)": 0.0686}
{"sequence": "CTCCGCTCTTGGGTTCTAACCTGTTGCCT (site TTCCGCTCTAG)", "recombinant barcode read abundance (log10)": 0.113}
{"sequence": "CTCCGTCCTTGGGTTCTAACCTGTTGCGT (site CTCCGCCCTAG)", "recombinant barcode read abundance (log10)": 0.23}
{"sequence": "CTCCGTCCTTGGGTTCTAACCTGTTGCGT (site CTCCGTCCTAC)", "recombinant barcode read abundance (log10)": 2.54}
{"sequence": "CTCGAATCTTGGGTTCTAACCTGTTGCTT (site CTCGAATCTAA)", "recombinant barcode read abundance (log10)": 0.897}
{"sequence": "CTCGAATCTTGGGTTCTAACCTGTTGCTT (site GGGATCCCTCC)", "recombinant barcode read abundance (log10)": 0.101}
{"sequence": "CTCGACCCTTGGGTTCTAACCTGTTGCAT (site CTCGACCCTAT)", "recombinant barcode read abundance (log10)": 2.4}
{"sequence": "CTCGACCCTTGGGTTCTAACCTGTTGCAT (site GGGCCTGCTTG)", "recombinant barcode read abundance (log10)": 1.66}
{"sequence": "CTCGATTCTTGGGTTCTAACCTGTTGCAT (site CTCAATTCTAT)", "recombinant barcode read abundance (log10)": 0.355}
{"sequence": "CTCGATTCTTGGGTTCTAACCTGTTGCAT (site CTCCATTCTAT)", "recombinant barcode read abundance (log10)": 0.194}
{"sequence": "CTCGATTCTTGGGTTCTAACCTGTTGCAT (site CTCGATTCTAT)", "recombinant barcode read abundance (log10)": 1.66}
{"sequence": "CTCGATTCTTGGGTTCTAACCTGTTGCAT (site CTCTATTCTAT)", "recombinant barcode read abundance (log10)": 0.213}
{"sequence": "CTCGGTTCTTGGGTTCTAACCTGTTGCCT (site CTCGGTACTTG)", "recombinant barcode read abundance (log10)": 0.128}
{"sequence": "CTCGGTTCTTGGGTTCTAACCTGTTGCCT (site CTCGGTTCTAG)", "recombinant barcode read abundance (log10)": 1.41}
{"sequence": "CTCGTAACTTGGGTTCTAACCTGTTGCCT (site CTCGTAACTAG)", "recombinant barcode read abundance (log10)": 0.361}
{"sequence": "CTCGTAACTTGGGTTCTAACCTGTTGCCT (site CTCGTCACTAG)", "recombinant barcode read abundance (log10)": 0.0602}
{"sequence": "CTCGTAACTTGGGTTCTAACCTGTTGCCT (site CTCGTGACTAG)", "recombinant barcode read abundance (log10)": 0.123}
{"sequence": "CTCGTAACTTGGGTTCTAACCTGTTGCCT (site CTCGTTACTAG)", "recombinant barcode read abundance (log10)": 1.13}
{"sequence": "CTCTACACTTGGGTTCTAACCTGTTGCTG (site CTCGACACTCA)", "recombinant barcode read abundance (log10)": 0.116}
{"sequence": "CTCTACACTTGGGTTCTAACCTGTTGCTG (site CTCTACACTCA)", "recombinant barcode read abundance (log10)": 1.13}
{"sequence": "CTCTACTCTTGGGTTCTAACCTGTTGCCT (site CTCTACTCTAG)", "recombinant barcode read abundance (log10)": 2.02}
{"sequence": "CTCTACTCTTGGGTTCTAACCTGTTGCCT (site TTCTACTCTAG)", "recombinant barcode read abundance (log10)": 0.0366}
{"sequence": "CTCTAGACTTGGGTTCTAACCTGTTGCTG (site CTCAAGACTCC)", "recombinant barcode read abundance (log10)": 0.0495}
{"sequence": "CTCTAGACTTGGGTTCTAACCTGTTGCTG (site CTCTAGACTCA)", "recombinant barcode read abundance (log10)": 1.82}
{"sequence": "CTCTAGGCTTGGGTTCTAACCTGTTGCCT (site CTCTAGGCTAG)", "recombinant barcode read abundance (log10)": 0.0135}
{"sequence": "CTCTAGGCTTGGGTTCTAACCTGTTGCCT (site CTCTCGGCTAG)", "recombinant barcode read abundance (log10)": 0.186}
{"sequence": "CTCTAGGCTTGGGTTCTAACCTGTTGCCT (site CTCTGGGCTAG)", "recombinant barcode read abundance (log10)": 0.202}
{"sequence": "CTCTAGGCTTGGGTTCTAACCTGTTGCCT (site CTCTTGGCTAG)", "recombinant barcode read abundance (log10)": 0.13}
{"sequence": "CTCTCATCTTGGGTTCTAACCTGTTGCCT (site CTCTCATCTAA)", "recombinant barcode read abundance (log10)": 0.125}
{"sequence": "CTCTCATCTTGGGTTCTAACCTGTTGCCT (site CTCTCATCTAG)", "recombinant barcode read abundance (log10)": 0.149}
{"sequence": "CTCTCGTCTTGGGTTCTAACCTGTTGCCT (site CTCTCGTCTAA)", "recombinant barcode read abundance (log10)": 0.11}
{"sequence": "CTCTCGTCTTGGGTTCTAACCTGTTGCCT (site CTCTCGTCTAC)", "recombinant barcode read abundance (log10)": 0.119}
{"sequence": "CTCTCGTCTTGGGTTCTAACCTGTTGCCT (site CTCTCGTCTAG)", "recombinant barcode read abundance (log10)": 0.944}
{"sequence": "CTCTCGTCTTGGGTTCTAACCTGTTGCCT (site CTCTCGTCTAT)", "recombinant barcode read abundance (log10)": 0.0858}
{"sequence": "CTCTCTTCTTGGGTTCTAACCTGTTGCCT (site CTCTCTCCTAG)", "recombinant barcode read abundance (log10)": 0.0216}
{"sequence": "CTCTCTTCTTGGGTTCTAACCTGTTGCCT (site CTCTCTTCTAG)", "recombinant barcode read abundance (log10)": 0.114}
{"sequence": "CTCTGAGCTTGGGTTCTAACCTGTTGCAG (site ACTGCTCCTAG)", "recombinant barcode read abundance (log10)": 0.0584}
